According to publication PMC10681040 (Bioorganic chemistry, 2023):

Biological target: human nCDase (extracellular region, residues 99–780) (Homo sapiens, UniProt Q9NR71)
Assay: RBM biochemical nCDase enzymatic activity assay
Details: qualitative; data not shown for valproate, anacardamate, MG149

Chain of human nCDase (extracellular region, residues 99–780) (Q9NR71 99-780): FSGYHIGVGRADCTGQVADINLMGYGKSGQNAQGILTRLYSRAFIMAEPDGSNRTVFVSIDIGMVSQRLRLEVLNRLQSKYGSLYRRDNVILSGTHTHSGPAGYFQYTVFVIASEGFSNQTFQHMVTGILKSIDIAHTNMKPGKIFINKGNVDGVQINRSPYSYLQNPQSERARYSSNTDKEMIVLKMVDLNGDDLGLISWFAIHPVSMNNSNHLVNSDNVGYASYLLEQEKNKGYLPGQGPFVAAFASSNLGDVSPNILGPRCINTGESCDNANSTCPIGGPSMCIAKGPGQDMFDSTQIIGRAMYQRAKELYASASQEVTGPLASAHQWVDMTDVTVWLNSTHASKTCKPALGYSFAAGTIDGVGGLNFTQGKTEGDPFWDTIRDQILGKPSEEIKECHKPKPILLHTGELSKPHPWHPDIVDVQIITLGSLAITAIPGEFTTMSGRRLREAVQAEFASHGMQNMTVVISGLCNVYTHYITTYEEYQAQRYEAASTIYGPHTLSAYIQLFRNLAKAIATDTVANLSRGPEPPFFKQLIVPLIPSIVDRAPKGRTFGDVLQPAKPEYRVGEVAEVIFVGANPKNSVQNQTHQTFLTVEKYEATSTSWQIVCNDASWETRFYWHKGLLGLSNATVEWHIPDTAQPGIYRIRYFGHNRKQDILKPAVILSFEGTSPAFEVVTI

nCDase inhibitory activity (in words)	Compound
exhibited nCDase inhibitory activity	CCCCCCCc1ccc(CCc2cccc(O)c2C(=O)O)cc1 [MG149]
exhibited nCDase inhibitory activity	CCCC(CCC)C(=O)O [valproate]
exhibited nCDase inhibitory activity	anacardamate
nCDase inhibitory activity	CC(/C=C/C(=O)NO)=C\[C@@H](C)C(=O)c1ccc(N(C)C)cc1 [Trichostatin A]
